Measured values as given in PMC12387182, “Polyphenolic Profiling and Evaluation of Antioxidant, Antidiabetic, Anti-Alzheimer, and Antiglaucoma Activities of Allium kharputense and Anchusa azurea var. azurea” (Life, 2025).

How the values were obtained:
[1] = Cu^2+ reducing ability (CUPRAC); conditions: absorbance at 30 µg/mL
Experimental: Equal volumes of 1.0 mM CuCl2, 7.5 mM neocuprine solutions, and 1.0 M ammonium acetate buffer (pH 6.5) were prepared according to the technique of Apak et al.. The plants were mixed with three different concentrations of the samples (15–45 µg/mL in ethanol), and the total reaction volume was adjusted to 2 mL. After the tubes were kept at room temperature for 30 min, the absorbance values at 450 nm were read spectrophotometrically.

[2] = Fe^3+ reducing; conditions: absorbance at 30 µg/mL
[3] = Fe^3+-TPTZ reducing (FRAP); conditions: absorbance at 30 µg/mL
Experimental: The ferric reducing capacity (FRAP) of plasma is measured using the technique outlined. At low pH, a strong blue hue with a maximum absorption at 593 nm is produced when a ferric–tripyridyltriazine (Fe^3+-TPTZ) complex is reduced to the Fe^2+ form.

[4] = ABTS scavenging activity
Experimental: In addition, the ABTS^•^+ scavenging capacity of A. kharputense and A. azurea was determined. The mixture comprised 2 mM ABTS in water combined with 2.45 mM potassium persulfate (K2S2O8) to form ABTS^•+. This mixture was then kept for six hours at room temperature and in the dark. The study was performed by first diluting the solution in phosphate buffer (pH 7.4) to achieve an absorption of 0.800 ± 0.05 at 734 nm in a 1 mL cuvette. The solution was then equilibrated at 30 °C, the temperature at which all subsequent tests were conducted. Subsequently, 3 mL of each of A. kharputense and A. azurea in ethanol at various concentrations (10–30 µg/mL) were combined with 1 mL each of ABTS^•+ solution. Following a 30 min period of agitation, the absorbances were measured at 734 nm, and the radical scavenging activities were calculated for each concentration.

[5] = DPPH scavenging activity
Experimental: DPPH solution was prepared one day before the experimental measurement. The solution bottle was kept in the dark and stirred at 4 °C for 16 h. Aluminum foil was used to cover the bottle. Shortly after the preparation of 0.1 mM DPPH solution in ethanol, 0.5 mL of this solution was added to 2 mL A. kharputense and A. azurea extracts in ethanol at various concentrations (10–30 µg/mL). A. kharputense and A. azurea samples were vortexed and incubated at 30 °C for 30 min in the dark. The DPPH^• absorbances were measured and evaluated at 517 nm in comparison with the blank sample [40].

[6] = target: α-glycosidase (Saccharomyces cerevisiae, UniProt P53341); conditions: cited from earlier work
Sequence of α-glycosidase (P53341 whole entry): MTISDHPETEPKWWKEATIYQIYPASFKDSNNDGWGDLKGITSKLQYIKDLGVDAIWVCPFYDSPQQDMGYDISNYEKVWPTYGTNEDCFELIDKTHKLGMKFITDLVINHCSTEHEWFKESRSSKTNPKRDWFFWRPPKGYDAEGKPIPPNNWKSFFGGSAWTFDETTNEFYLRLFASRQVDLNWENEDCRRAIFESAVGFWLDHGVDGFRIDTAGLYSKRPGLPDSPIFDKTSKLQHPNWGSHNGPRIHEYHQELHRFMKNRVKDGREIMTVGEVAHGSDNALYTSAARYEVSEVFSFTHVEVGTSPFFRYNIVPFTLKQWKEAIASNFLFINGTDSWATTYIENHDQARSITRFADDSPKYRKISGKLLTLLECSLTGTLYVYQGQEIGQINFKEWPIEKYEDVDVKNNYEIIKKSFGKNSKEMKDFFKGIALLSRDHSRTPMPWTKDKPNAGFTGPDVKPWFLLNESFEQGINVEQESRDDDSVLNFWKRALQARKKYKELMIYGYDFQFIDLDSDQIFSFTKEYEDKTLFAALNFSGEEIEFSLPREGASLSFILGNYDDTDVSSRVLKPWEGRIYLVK

[7] = cited from earlier work

SMILES	Cu^2+ Reducing A (450 nm) [1]	Fe^3+ Reducing A (700 nm) [2]	Fe^3+-TPTZ Reducing A (593 nm) [3]	ABTS^•+ Scavenging IC50 [4] [µg/mL]	DPPH^• Scavenging IC50 [5] [µg/mL]	α-glycosidase inhibitory effect compared with Acarbose [6]	DPPH radical scavenging activity (IC50) [7] [µg/mL]
Cc1cc(C(C)(C)C)c(O)c(C(C)(C)C)c1 [BHT, butylated hydroxytoluene]	2.15 ± 0.068	2.08 ± 0.062	1.50 ± 0.080	32.00 ± 0.100	13.34 ± 0.011		
COc1ccc(O)c(C(C)(C)C)c1 [BHA, butylated hydroxyanisole]	1.58 ± 0.016	1.76 ± 0.026	1.75 ± 0.040	38.59 ± 0.130	23.87 ± 0.097		
Cc1c(C)c2c(c(C)c1O)CC[C@@](C)(CCC[C@H](C)CCC[C@H](C)CCCC(C)C)O2 [α-Tocopherol, α-tocopherol]	1.47 ± 0.044	0.94 ± 0.059		25.12 ± 0.070	30.29 ± 0.056		
Cc1c(C)c2c(c(C)c1O)CCC(C)(C(=O)O)O2 (centres unmarked) [Trolox]	1.04 ± 0.102	1.45 ± 0.005	0.84 ± 0.010	53.26 ± 0.070	20.98 ± 0.016		
O=c1c(O[C@@H]2O[C@H](CO)[C@@H](O)[C@H](O)[C@H]2O)c(-c2ccc(O)c(O)c2)oc2cc(O)cc(O)c12 [isoquercitrin]						stronger than that of Acarbose	
O=C1O[C@H]([C@@H](O)CO)C(O)=C1O [Ascorbic acid]				28.79 ± 0.120	18.61 ± 0.120		3.6
